Results on seven molecules are retold here after patent USRE41209E1, “Platinum complexes” (Genzyme Corporation, priority 1996, dated 2010).

Where two headings read alike, the source gives them in different places.

For one data set, the system named is 41M. The experiment in a line: Inhibition of cell proliferation, human cancer cell lines in culture (41M). In kind it is cell-based. As to conditions: read-out: concentration necessary to achieve a 50% decrease in cell proliferation.
For a further data set, the system named is A2780R. The experiment in a line: Inhibition of cell proliferation, human cancer cell lines in culture (A2780R). It counts as cell-based. The method, then: (§1) The complexes of the invention were tested against human cancer cell lines grown in cell culture according to established testing procedures (described by Kelland et al, Cancer Research 53, 2581-2586, June 1993). […] The results are given in concentrations (μM) necessary to achieve a 50% decrease in cell proliferation, with resistance factors in brackets for the cisplatin-resistant cell lines.

The next data set concerns SKOV3. Briefly: Inhibition of cell proliferation, human cancer cell lines in culture (SKOV3). In kind it is cell-based. As to the method: as §1
The subject of a further data set is CH1R. Briefly: Inhibition of cell proliferation, human cancer cell lines in culture (CH1R). In kind it is cell-based. As to the method: as §1
In another data set the test system is HX62. The experiment in a line: Inhibition of cell proliferation, human cancer cell lines in culture (HX62). In kind it is cell-based. The method, then:
as §1

For the next data set, the system named is CH1. The experiment in a line: Inhibition of cell proliferation, human cancer cell lines in culture (CH1). In kind it is cell-based.
The next data set deals with A2780. The experiment in a line: Inhibition of cell proliferation, human cancer cell lines in culture (A2780). It counts as cell-based.
The next data set deals with 41MR. Briefly: Inhibition of cell proliferation, human cancer cell lines in culture (41MR). In kind it is cell-based. The method, then:
as §1

The next data set concerns ADJ/PC6. The experiment in a line: ADJ/PC6 tumour mass reduction in Balb C mice. In kind it is in vivo.
In the next data set the test system is CH1 xenograft. Briefly: CH1 xenograft antitumour activity. It counts as in vivo. The note with it: for antitumour effect and tumour regrowth in the CH1 xenograft: derived from cell line sensitive to cisplatin. The source says:
It has been reported by Tobe et al (Wadley Medical Bulletin 7, 1, 114-135) that steric effects of bulky substituents close to the platinum atom have a profound effect upon the rate of substitution reactions there. At that time no systematic study of the way in which variation of the substituent on the primary amine affects the rate and extend of bonding of the Pt complex to DNA had been undertaken.

The conditions of data set [1]: mouse, in vivo, po.
Setting [2] is: inherently cisplatin sensitive line.
Where [3] appears, read: A2780R, bred to be resistant to cisplatin; read-out: concentration necessary to achieve a 50% decrease in cell proliferation.
Where [4] appears, read: SKOV3, inherently resistant to cisplatin; read-out: concentration necessary to achieve a 50% decrease in cell proliferation.
The mark [5] stands for this setting: SKOV3 IC50 divided by the IC50 for the 41M line.
Where [6] appears, read: CH1R, bred to be resistant to cisplatin; read-out: concentration necessary to achieve a 50% decrease in cell proliferation.
Setting [7] is: HX62, inherently resistant to cisplatin; read-out: concentration necessary to achieve a 50% decrease in cell proliferation.
Where [8] appears, read: HX62 IC50 divided by the IC50 for the 41M line.
[9] abbreviates: CH1; read-out: concentration necessary to achieve a 50% decrease in cell proliferation.
Where [10] appears, read: A2780; read-out: concentration necessary to achieve a 50% decrease in cell proliferation.
The mark [11] stands for this setting: 41MR, bred to be resistant to cisplatin; read-out: concentration necessary to achieve a 50% decrease in cell proliferation.
[12] abbreviates: Homo sapiens, read-out: concentration necessary to achieve a 50% decrease in cell proliferation.
Setting [13] is: Homo sapiens; read-out: concentration necessary to achieve a 50% decrease in cell proliferation.

Take `Cc1cc[n+]([Pt-2]([NH3+])([OH])([OH])([Cl])[Cl])c(C)c1` [Example 7, (OC-6-43)-amminedichlorodihydroxo(2,4-dimethylpyridine)platinum(IV)]: the IC50 turned out to be 8 µM with 41M (setting [2]); 30 µM with A2780R (setting [3]); 47 µM in the data set on SKOV3 (setting [4]); 8.9 µM in the data set on CH1R (setting [6]); 72 µM in the data set on HX62 (setting [7]); 3.1 µM in the data set with CH1 (setting [9]). Further, the IC50 with A2780 (setting [10]) stood at 14 µM; with 41MR (setting [11]), 17.5 µM. The resistance factor result with A2780R (A2780R versus A2780) is on record as “(2.1)”; in the data set with SKOV3 (setting [5]) it was “(5.9)”; with CH1R (CH1R versus CH1), “(2.5)”; in the data set on HX62 (setting [8]), “(9)”; with 41MR (41MR versus 41M), “(2.2)”.
Regarding `CC(C)c1ccccn1` [Example 5, 2-isopropylpyridine], the IC50 in the data set on 41M (Homo sapiens) was 6.1 µM; in the data set with A2780R (setting [12]), 14 µM; in the data set on SKOV3 (Homo sapiens, SK-OV-3, read-out: concentration necessary to achieve a 50% decrease in cell proliferation), 20 µM; with CH1R (setting [12]), 4.2 µM; in the data set on HX62 (Homo sapiens, HX62, read-out: concentration necessary to achieve a 50% decrease in cell proliferation), 49 µM; with CH1 (Homo sapiens, CH1, read-out: concentration necessary to achieve a 50% decrease in cell proliferation) it was 2.4 µM. Besides, the IC50 in the data set with A2780 (Homo sapiens, A2780, read-out: concentration necessary to achieve a 50% decrease in cell proliferation) came to 3.9 µM; in the data set on 41MR (setting [12]) it was 5.6 µM. Moreover, the resistance factor result is “(3.6)” in the data set on A2780R (A2780R versus A2780); “(3.3)” with SKOV3 (setting [5]); “(1.7)” in the data set with CH1R (CH1R versus CH1); “(8)” with HX62 (setting [8]); “(0.9)” with 41MR (41MR versus 41M).
`Cc1ccnc(C)c1.N.[Cl][Pt][Cl]` [Example 4, (SP-4-3)-amminedichloro(2,4-dimethylpyridine)platinum(II)]: the IC50 with 41M (setting [2]) was 4.25 µM; in the data set on A2780R (setting [3]), 18 µM; in the data set with SKOV3 (setting [4]), 14 µM; in the data set with CH1R (setting [6]), 5.3 µM; with HX62 (setting [7]) it was 4.9 µM; with CH1 (setting [9]), 2.3 µM. Moreover, the results for the IC50 in the data set with A2780 (setting [10]) and in the data set on 41MR (setting [11]) were 6.6 µM and 1.9 µM, respectively. In addition, the resistance factor result is given as “(3)” with SKOV3 (setting [5]), “(2.3)” in the data set with CH1R (CH1R versus CH1), “(1)” in the data set on HX62 (setting [8]) and “(0.4)” with 41MR (41MR versus 41M).
Take `N.N.O=C([O-])C1(C(=O)[O-])CCC1.[Pt+2]` [Carboplatin, reference compound]: the IC50 in the data set on 41M (setting [2]) was found to be 3.3 µM; in the data set with A2780R (setting [3]) it was 37.4 µM; in the data set with SKOV3 (setting [4]), 37.7 µM; in the data set on CH1R (setting [6]) it was 6 µM; in the data set on HX62 (setting [7]) it was 85 µM; in the data set on CH1 (setting [9]), 1.3 µM. The IC50 in the data set on A2780 (setting [10]) came out at 2.6 µM; with 41MR (setting [11]), 8.8 µM. Besides, the resistance factor entry in the data set with A2780R (A2780R versus A2780) is given as “(14)”; with SKOV3 (setting [5]), “(11)”; in the data set on CH1R (CH1R versus CH1), “(4.6)”; in the data set on HX62 (setting [8]), “(26)”; in the data set on 41MR (41MR versus 41M), “(2.7)”.
For the molecule `N.N.[Cl][Pt][Cl]` [Cisplatin, [PtCl2 (NH3)2], reference compound], the IC50 in the data set with 41M (setting [2]) is 0.41 µM; with A2780R (setting [3]), 7.8 µM; in the data set on SKOV3 (setting [4]), 4.3 µM; in the data set with CH1R (setting [6]), 0.44 µM; in the data set on HX62 (setting [7]), 15.5 µM; in the data set on CH1 (setting [9]), 0.12 µM. Also, the IC50 was determined as 0.35 µM in the data set with A2780 (setting [10]) and 1.9 µM with 41MR (setting [11]). Moreover, the resistance factor entry is listed as “(22)” in the data set with A2780R (A2780R versus A2780); “(10.5)” in the data set with SKOV3 (setting [5]); “(3.7)” with CH1R (CH1R versus CH1); “(37.8)” in the data set on HX62 (setting [8]); “(4.6)” with 41MR (41MR versus 41M). The “ED90; dose required to reduce tumour mass by 90%” value in the data set with ADJ/PC6 (ADJ/PC6, Daily × 5 (i.p.)) came out at 0.2 mg/kg; in the data set with ADJ/PC6 (ADJ/PC6, Single dose (i.p.)), 1.6 mg/kg; with ADJ/PC6 (ADJ/PC6, Single dose (p.o.)), 24 mg/kg. Further, the “antitumour effect and tumour regrowth in the CH1 xenograft” value with CH1 xenograft is “significant activity at the maximum tolerated dose, however the tumour does grow back”.
As to `Cc1cccc[n+]1[Pt-2]([NH3+])([Cl])[Cl]` [Example 1, (SP-4-3)-amminedichloro(2-methylpyridine) platinum(II)], the IC50 with 41M (setting [2]) stood at 4.1 µM; with A2780R (setting [3]) it was 4.4 µM; in the data set with SKOV3 (setting [4]) it was 17.5 µM; with CH1R (setting [6]), 3.7 µM; in the data set with HX62 (setting [7]), 40 µM; with CH1 (setting [9]) it was 1.9 µM. Moreover, the IC50 in the data set on A2780 (setting [10]) was found to be 1.28 µM; in the data set on 41MR (setting [11]), 5 µM. Further, the resistance factor result in the data set with A2780R (A2780R versus A2780) is “(3.4)”; in the data set with SKOV3 (setting [5]), “(4.3)”; in the data set with CH1R (CH1R versus CH1), “(1.9)”; in the data set on HX62 (setting [8]) it was “(9.8)”; with 41MR (41MR versus 41M) it was “(1.2)”. Also, the “LD50; dose causing 50% lethality” value in data set [1] amounted to 560 mg/kg. Also, the “ED90; dose required to reduce tumour mass by 90%” value with ADJ/PC6 (ADJ/PC6, Daily × 5 (i.p.)) stood at 0.8 mg/kg; with ADJ/PC6 (ADJ/PC6, Single dose (i.p.)) it was 3 mg/kg; in the data set with ADJ/PC6 (ADJ/PC6, Single dose (p.o.)), 6.2 mg/kg. In addition, the “histological evidence of organ toxicity” value (mice receiving a LD10 dose) is “No significant histological evidence of liver, kidney, spleen, gastrointestinal tract, brain or skin toxicity”. The “levels of ALP, ALT, gut disaccharides maltose, sucrose and trehalose, urea and creatinine compared to control mice” value (treated mice (LD50 dose)) is on record as “no significant differences”. In the data set with CH1 xenograft, the “antitumour effect and tumour regrowth in the CH1 xenograft” value was “exhibits a curative effect, and the tumour does not grow back”. Besides, in the data set on CH1 xenograft (greater dose is required than cisplatin), the “potency in the CH1 xenograft compared with cisplatin” value is listed as “slightly less potency”.
For `CCc1ccccn1` [Example 2, 2-ethylpyridine], the IC50 in the data set on 41M (Homo sapiens) was 3.4 µM; in the data set on A2780R (setting [13]), 11 µM; in the data set with SKOV3 (Homo sapiens, SK-OV-3; read-out: concentration necessary to achieve a 50% decrease in cell proliferation) it was 20 µM; in the data set on CH1R (setting [13]), 3.6 µM; in the data set on HX62 (Homo sapiens, HX62; read-out: concentration necessary to achieve a 50% decrease in cell proliferation) it was 36 µM; with CH1 (Homo sapiens, CH1; read-out: concentration necessary to achieve a 50% decrease in cell proliferation), 1.4 µM. Also, the IC50 came out at 4.4 µM in the data set with A2780 (Homo sapiens, A2780; read-out: concentration necessary to achieve a 50% decrease in cell proliferation) and 5.7 µM in the data set on 41MR (setting [13]). In addition, the resistance factor result in the data set on A2780R (A2780R versus A2780) is given as “(2.5)”; in the data set on SKOV3 (setting [5]), “(2.9)”; in the data set with CH1R (CH1R versus CH1), “(2.6)”; in the data set with HX62 (setting [8]) it was “(10)”; with 41MR (41MR versus 41M) it was “(1.7)”.
